Test results published in patent publication US10611730B2, “Benzimidazolone and benzothiazolone compounds and their use as AMPA receptor modulators” (Janssen Pharmaceutica NV, priority 2015, dated 2020).

The molecules below were run against TARP γ8 dependent AMPA receptor (GluA1o-g8 fusion channel) (Homo sapiens (Human), UniProt P42261+Q8WXS5) (assay: Calcium flux assay (FLIPR), HEK293 cells expressing GRIA1o-CACNG8 fusion). Settings: inhibition of calcium flux after 15 μM glutamate, read-out: GluR1-γ8 pIC50 (converted).
Sequence of TARP γ8 dependent AMPA receptor (GluA1o-g8 fusion channel) (P42261 other isoform, or with tags, fused parts or gaps): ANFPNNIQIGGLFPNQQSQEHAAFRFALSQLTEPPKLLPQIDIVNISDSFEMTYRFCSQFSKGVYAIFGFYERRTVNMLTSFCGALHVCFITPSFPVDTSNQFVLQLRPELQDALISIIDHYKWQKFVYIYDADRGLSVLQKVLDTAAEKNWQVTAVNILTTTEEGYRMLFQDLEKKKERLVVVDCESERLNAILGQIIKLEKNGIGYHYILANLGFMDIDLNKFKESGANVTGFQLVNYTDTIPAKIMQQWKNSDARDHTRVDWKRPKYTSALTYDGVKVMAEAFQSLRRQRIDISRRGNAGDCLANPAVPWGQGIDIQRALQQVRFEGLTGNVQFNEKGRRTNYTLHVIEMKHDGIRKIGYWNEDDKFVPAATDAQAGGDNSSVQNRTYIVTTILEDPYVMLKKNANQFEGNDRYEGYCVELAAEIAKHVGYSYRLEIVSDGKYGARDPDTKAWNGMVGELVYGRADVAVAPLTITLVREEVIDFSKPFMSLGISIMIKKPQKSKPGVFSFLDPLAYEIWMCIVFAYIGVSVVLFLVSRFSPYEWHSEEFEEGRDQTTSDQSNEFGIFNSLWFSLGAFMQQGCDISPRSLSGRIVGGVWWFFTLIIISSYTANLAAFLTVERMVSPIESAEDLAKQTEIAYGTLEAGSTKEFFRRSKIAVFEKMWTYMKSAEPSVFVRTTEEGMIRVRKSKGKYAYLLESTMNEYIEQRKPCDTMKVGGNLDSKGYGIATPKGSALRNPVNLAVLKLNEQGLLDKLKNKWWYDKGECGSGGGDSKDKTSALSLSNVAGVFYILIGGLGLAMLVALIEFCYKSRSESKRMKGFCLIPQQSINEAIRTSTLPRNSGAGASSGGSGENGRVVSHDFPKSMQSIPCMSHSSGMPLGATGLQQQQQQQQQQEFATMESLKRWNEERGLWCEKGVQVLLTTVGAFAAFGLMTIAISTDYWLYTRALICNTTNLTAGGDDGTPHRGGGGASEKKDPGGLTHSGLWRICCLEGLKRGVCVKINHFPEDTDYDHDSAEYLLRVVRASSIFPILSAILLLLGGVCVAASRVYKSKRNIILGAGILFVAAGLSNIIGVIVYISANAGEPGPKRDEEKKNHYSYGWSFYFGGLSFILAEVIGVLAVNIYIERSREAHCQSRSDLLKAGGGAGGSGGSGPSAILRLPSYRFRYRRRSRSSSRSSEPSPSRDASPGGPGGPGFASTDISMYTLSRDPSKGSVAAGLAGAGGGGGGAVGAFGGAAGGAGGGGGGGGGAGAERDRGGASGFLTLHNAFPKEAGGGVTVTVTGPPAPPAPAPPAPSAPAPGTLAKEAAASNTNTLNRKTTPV
Type: cell-based
Excerpt: This assay was used to test compounds for their ability to inhibit TARP γ8 dependent AMPA receptor activity.
An in vitro assay was used to determine the potency of test compounds as inhibitors of the glutamate response of the channel formed by GluA1o-g8. To ensure a 1:1 stoichiometry of GluA1o and g8 subunits in the expressed channel, a fusion of the cDNAs for GRIA1o and CACNG8 was used. […] A clonal cell line in HEK293 cells stably expressing this construct, with a geneticin selection marker, was generated for use in this assay. Cell expressing the GRIAlo-CACNG8 fusion construct were grown in a monolayer in 96- or 384-well microtiter plates. […] The cells were then loaded with a calcium-sensitive dye (Calcium-5 or Calcium-6, Molecular Devices) and the test compounds at a range of concentrations.
The fluorescence in each well was normalized to the fluorescence of negative and positive control wells. […] The responses to glutamate as functions of the test compound concentrations were fitted to a four-parameter logistic function. The fitted parameter corresponding to the midpoint was taken to be the potency of inhibition of the compound.
In the case of `CC(C)Oc1cccc(-c2ccc3[nH]c(=O)[nH]c3c2)c1C#N` [Example 62, 2-Isopropoxy-6-(2-oxo-1,3-dihydrobenzimidazol-5-yl)benzonitrile], the IC50 is reported as 200 nM. With `Cc1c(C(=O)N2CCOCC2)cccc1-c1ccc2[nH]c(=O)[nH]c2c1` [Example 82, 5-[2-Methyl-3-(morpholine-4-carbonyl)phenyl]-1,3-dihydrobenzimidazol-2-one] the IC50 was 5010 nM. For `O=c1[nH]c2ccc(-c3ccccc3Cc3ccccc3)cc2[nH]1` [Example 59, 5-(2-Benzylphenyl)-1,3-dihydrobenzimidazol-2-one], the IC50 was 316 nM. `O=c1[nH]c2ccc(-c3c(Cl)cc(Cl)cc3Cl)cc2[nH]1` [Example 51, 5-(2,4,6-Trichlorophenyl)-1,3-dihydrobenzimidazol-2-one] gave an IC50 of 501 nM. For `Cc1c(CN2CCOC(C)C2)cccc1-c1ccc2[nH]c(=O)[nH]c2c1` (racemic) [Example 150, (±)-5-[2-Methyl-3-[(2-methylmorpholin-4-yl)methyl]phenyl]-1,3-dihydrobenzimidazol-2-one], the IC50 was 200 nM. With `COc1cccc(OC)c1-c1ccc2[nH]c(=O)[nH]c2c1` [Example 7, 5-(2,6-Dimethoxyphenyl)-1,3-dihydrobenzimidazol-2-one] the IC50 was 1260 nM. `N#CC1(c2cccc(Cl)c2-c2ccc3[nH]c(=O)[nH]c3c2)CC1` [Example 128, 1-[3-Chloro-2-(2-oxo-1,3-dihydrobenzimidazol-5-yl)phenyl]cyclopropanecarbonitrile] was tested, and the IC50 was 398 nM. Molecule `CC(C)c1ccccc1-c1ccc2[nH]c(=O)[nH]c2c1` [Example 6, 5-(2-Isopropylphenyl)-1,3-dihydrobenzimidazol-2-one] has an IC50 of 316 nM. `O=c1[nH]c2ccc(-c3c(Cl)cccc3-c3ccc(F)nc3)cc2[nH]1` [Example 167, 5-[2-Chloro-6-(6-fluoro-3-pyridyl)phenyl]-1,3-dihydrobenzimidazol-2-one] was tested, and the IC50 was 316 nM. For `O=c1[nH]c2ccc(-c3c(Cl)ccc(-c4nnco4)c3Cl)cc2[nH]1` [Example 192, 5-[2,6-Dichloro-3-(1,3,4-oxadiazol-2-yl)phenyl]-1,3-dihydrobenzimidazol-2-one], the IC50 was 631 nM. In the case of `Cc1ccc(Cl)c(-c2ccc3[nH]c(=O)[nH]c3c2)c1Cl` [Example 23, 5-(2,6-Dichloro-3-methyl-phenyl)-1,3-dihydrobenzimidazol-2-one], the IC50 is reported as 15.8 nM. Work on `O=c1[nH]c2ccc(-c3cccc(-n4ccnc4)c3Cl)cc2[nH]1` [Example 187, 5-(2-Chloro-3-imidazol-1-yl-phenyl)-1,3-dihydrobenzimidazol-2-one] yielded an IC50 of 3160 nM. `CC(C)Oc1cccc(F)c1-c1ccc2[nH]c(=O)[nH]c2c1` [Example 11, 5-(2-Fluoro-6-isopropoxy-phenyl)-1,3-dihydrobenzimidazol-2-one] gave an IC50 of 501 nM. In the case of `O=c1[nH]c2ccc(-c3cccc(CN4CCOCC4)c3Cl)cc2[nH]1` [Example 141, 5-[2-Chloro-3-(morpholinomethyl)phenyl]-1,3-dihydrobenzimidazol-2-one], the IC50 is reported as 1000 nM. `O=c1[nH]c2ccc(-c3c(Cl)cccc3OC3CC3)cc2[nH]1` [Example 90, 5-[2-Chloro-6-(cyclopropoxy)phenyl]-1,3-dihydrobenzimidazol-2-one] was tested, and the IC50 was 251 nM. With `Cc1cccc(-c2ccc3[nH]c(=O)[nH]c3c2)c1C` [Example 1, 5-(2,3-Dimethylphenyl)-1,3-dihydrobenzimidazol-2-one] the IC50 was 251 nM. `CC(C)Oc1ccc(Cl)cc1-c1ccc2[nH]c(=O)[nH]c2c1` [Example 16, 5-(5-Chloro-2-isopropoxy-phenyl)-1,3-dihydrobenzimidazol-2-one] showed an IC50 of 316 nM. With `O=c1[nH]c2ccc(-c3c(Cl)cccc3OCC3CC3(F)F)cc2[nH]1` (racemic) [Example 93, (±)-5-[2-Chloro-6-[(2,2-difluorocyclopropyl)methoxy]phenyl]-1,3-dihydrobenzimidazol-2-one] the IC50 was 20 nM. With `O=c1[nH]c2ccc(-c3cccc(-c4ccncc4)c3Cl)cc2[nH]1` [Example 184, 5-[2-Chloro-3-(4-pyridyl)phenyl]-1,3-dihydrobenzimidazol-2-one] the IC50 was 126 nM. With `N#Cc1c(-c2ccc3[nH]c(=O)[nH]c3c2)cccc1C(F)(F)F` [Example 65, 2-(2-Oxo-1,3-dihydrobenzimidazol-5-yl)-6-(trifluoromethyl)benzonitrile] the IC50 was 1260 nM. For `O=c1[nH]c2ccc(-c3c(F)cccc3F)cc2[nH]1` [Example 52, 5-(2,6-Difluorophenyl)-1,3-dihydrobenzimidazol-2-one], the IC50 was 1000 nM. `Cc1ccc(C#N)cc1-c1ccc2[nH]c(=O)[nH]c2c1` [Example 39, 4-Methyl-3-(2-oxo-1,3-dihydrobenzimidazol-5-yl)benzonitrile] showed an IC50 of 1580 nM. For `O=c1[nH]c2ccc(-c3c(Cl)cccc3NCc3ccoc3)cc2[nH]1` [Example 87, 5-[2-Chloro-6-(3-furylmethylamino)phenyl]-1,3-dihydrobenzimidazol-2-one], the IC50 was 126 nM. In the case of `O=c1[nH]c2ccc(-c3cc(C(F)(F)F)ccc3Cl)cc2[nH]1` [Example 25, 5-[2-Chloro-5-(trifluoromethyl)phenyl]-1,3-dihydrobenzimidazol-2-one], the IC50 is reported as 251 nM. With `CC(C)Oc1cccc(C(F)(F)F)c1-c1ccc2[nH]c(=O)[nH]c2c1` [Example 108, 5-[2-Isopropoxy-6-(trifluoromethyl)phenyl]-1,3-dihydrobenzimidazol-2-one] the IC50 was 79.4 nM. Molecule `COC(=O)c1cccc(-c2ccc3[nH]c(=O)[nH]c3c2)c1C` [Example 46, Methyl 2-methyl-3-(2-oxo-1,3-dihydrobenzimidazol-5-yl)benzoate] has an IC50 of 50.1 nM. `O=c1[nH]c2ccc(-c3c(F)cccc3Cl)cc2[nH]1` [Example 53, 5-(2-Chloro-6-fluoro-phenyl)-1,3-dihydrobenzimidazol-2-one] gave an IC50 of 251 nM. `Cc1c(CN2CCOC(C(F)(F)F)C2)cccc1-c1ccc2[nH]c(=O)[nH]c2c1` (racemic) [Example 151, (±)-5-[2-Methyl-3-[[2-(trifluoromethyl)morpholin-4-yl]methyl]phenyl]-1,3-dihydrobenzimidazol-2-one] gave an IC50 of 31.6 nM. Molecule `COc1cccc(OCC(F)(F)F)c1-c1ccc2[nH]c(=O)[nH]c2c1` [Example 103, 5-[2-Methoxy-6-(2,2,2-trifluoroethoxy)phenyl]-1,3-dihydrobenzimidazol-2-one] has an IC50 of 398 nM. In the case of `O=c1[nH]c2ccc(-c3cccc4cccnc34)cc2[nH]1` [Example 58, 5-(8-Quinolyl)-1,3-dihydrobenzimidazol-2-one], the IC50 is reported as 3160 nM. In the case of `O=c1[nH]c2ccc(-c3c(Cl)cc(F)cc3Cl)cc2[nH]1` [Example 50, 5-(2,6-Dichloro-4-fluoro-phenyl)-1,3-dihydrobenzimidazol-2-one], the IC50 is reported as 158 nM. `CC(C)Oc1cccc(OC(F)(F)F)c1-c1ccc2[nH]c(=O)[nH]c2c1` [Example 88, 5-[2-Isopropoxy-6-(trifluoromethoxy)phenyl]-1,3-dihydrobenzimidazol-2-one] was tested, and the IC50 was 7.94 nM. `O=c1[nH]c2ccc(-c3c(Cl)cccc3Oc3cncs3)cc2[nH]1` [Example 101, 5-(2-Chloro-6-thiazol-5-yloxy-phenyl)-1,3-dihydrobenzimidazol-2-one] gave an IC50 of 316 nM. `Cc1cccc(-c2ccccc2F)c1-c1ccc2[nH]c(=O)[nH]c2c1` [Example 180, 5-[2-(2-Fluorophenyl)-6-methyl-phenyl]-1,3-dihydrobenzimidazol-2-one] showed an IC50 of 316 nM. For `COC(=O)c1cccc(C)c1-c1ccc2[nH]c(=O)[nH]c2c1` [Example 45, Methyl 3-methyl-2-(2-oxo-1,3-dihydrobenzimidazol-5-yl)benzoate], the IC50 was 251 nM. Work on `N#Cc1cccc(-c2ccc3[nH]c(=O)[nH]c3c2)c1Cl` [Example 68, 2-Chloro-3-(2-oxo-1,3-dihydrobenzimidazol-5-yl)benzonitrile] yielded an IC50 of 316 nM. In the case of `C=Cc1cccc(Cl)c1-c1ccc2[nH]c(=O)[nH]c2c1` [Example 161, 5-(2-Chloro-6-vinyl-phenyl)-1,3-dihydrobenzimidazol-2-one], the IC50 is reported as 31.6 nM. Molecule `Cc1c(CN2CCOC(C)(C)C2)cccc1-c1ccc2[nH]c(=O)[nH]c2c1` [Example 149, 5-[3-[(2,2-Dimethylmorpholin-4-yl)methyl]-2-methyl-phenyl]-1,3-dihydrobenzimidazol-2-one] has an IC50 of 20 nM. `Cc1c(-c2ccc3[nH]c(=O)sc3c2)cccc1-c1nc(C2CC2)no1` [Example 202, 6-[3-(3-Cyclopropyl-1,2,4-oxadiazol-5-yl)-2-methyl-phenyl]-3H-1,3-benzothiazol-2-one] gave an IC50 of 3980 nM. For `O=c1[nH]c2ccc(-c3c(Cl)cccc3Cl)cc2[nH]1` [Example 49, 5-(2,6-Dichlorophenyl)-1,3-dihydrobenzimidazol-2-one], the IC50 was 63.1 nM. Molecule `Cc1nc(-c2cccc(-c3ccc4[nH]c(=O)[nH]c4c3)c2C)no1` [Example 71, 5-[2-Methyl-3-(5-methyl-1,2,4-oxadiazol-3-yl)phenyl]-1,3-dihydrobenzimidazol-2-one] has an IC50 of 50.1 nM. With `O=c1[nH]c2ccc(-c3c(Cl)cccc3OC(F)F)cc2[nH]1` [Example 94, 5-[2-Chloro-6-(difluoromethoxy)phenyl]-1,3-dihydrobenzimidazol-2-one] the IC50 was 31.6 nM. `O=c1[nH]c2ccc(-c3cccc(C(F)(F)F)c3Cl)cc2[nH]1` [Example 61, 5-[2-Chloro-3-(trifluoromethyl)phenyl]-1,3-dihydrobenzimidazol-2-one] was tested, and the IC50 was 39.8 nM. In the case of `O=c1[nH]c2ccc(-c3c(Cl)cccc3OCC3CC3)cc2[nH]1` [Example 92, 5-[2-Chloro-6-(cyclopropylmethoxy)phenyl]-1,3-dihydrobenzimidazol-2-one], the IC50 is reported as 10 nM.
